Laboratory results published in publication PMC11087398, “Evaluation of 1,10-phenanthroline-based hydroxamate derivative as dual histone deacetylases/ribonucleotide reductase inhibitor with antitumor activities” (DARU Journal of Pharmaceutical Sciences, 2024).
Where two headings read alike, the source gives them in different places.

Assays:
[1] = test system: foreskin fibroblast cells; assay: MTT cell viability assay; assay type: cell-based; settings: 48 h, normal human fibroblast cells, mean ± SD, read-out: Antiproliferative activity IC50, Fibroblast
Description: (§1) Human cancer cells (SiHa, HepG2, MCF7, Cal27) were obtained from ATCC, while foreskin fibroblast cells were generated at the Manipal School of Life Sciences. Cells were cultured in DMEM with 10% FBS, maintained in an Eppendorf CellXpert® C170 incubator at 37 °C with 5% CO2, and medium was renewed every 48–72 h.
(§2) Cancer cells (1 × 10^5 cells/mL) and fibroblast cells (5 × 10^4 cells/mL) were seeded in 96-well plates. Test compounds, dissolved in DMSO and diluted in DMEM with 10% FBS, were treated for 48 h. MTT (5 mg/mL) was added, and after 4 h, absorbance was measured at 570 and 630 nm using a VARIOSKAN™ 3001 multimode multiplate reader.

Cal27 = assay: MTT cell viability assay; assay type: cell-based, human; settings: mean ± SD, read-out: Antiproliferative activity IC50, Cal27
Description: as §1, §2

HepG2 = assay: MTT cell viability assay; assay type: cell-based, human; settings: mean ± SD, read-out: Antiproliferative activity IC50, HepG2
Description: as §1, §2

MCF7 = assay: MTT cell viability assay; assay type: cell-based, human; settings: mean ± SD, read-out: Antiproliferative activity IC50, MCF7
Description: as §1, §2

SiHa = assay: MTT cell viability assay; assay type: cell-based, human; settings: 48 h, mean ± SD, read-out: Antiproliferative activity IC50, SiHa
Description: as §1, §2

[2] = test system: HDAC (SiHa cell nuclear extracts); assay: In vitro fluorescent HDAC assay; assay type: biochemical, human; settings: substrate Boc-Lys(Ac)-AMC, read-out: HDAC inhibitory activity IC50
Description: In a black 96-well plate, HDAC assay buffer, varied concentrations of test compounds, and SiHa cell nucleus extract were combined and incubated for 30 min. The enzymatic reaction commenced with the addition of the fluorescent substrate, Boc-Lys(Ac)-AMC, and lasted for 2 h at 37 °C. Reaction termination involved adding a developer, followed by an additional incubation at room temperature for 10–15 min. Fluorescence intensity was assessed using a VARIOSKAN™ 3001 multimode multiplate reader at an excitation wavelength of 354 nm and emission wavelength of 450 nm.

[3] = test system: intracellular dNTP levels in SiHa cells; assay: dNTP pool analysis (HPLC); assay type: cell-based, human; settings: IC50 concentration
Description: Harvested duplicate samples (1 million cells each) were washed with ice-cold PBS, and an extraction solution (6.5: 3.5 of acetonitrile and water mixture with 100 mM formic acid) was added. After incubation and centrifugation, the solution was lyophilized, reconstituted in 100 µL HPLC buffer A, and analyzed on a Waters Symmetry C18 column using HPLC. A stepwise gradient of Buffer A and B was employed, with detection at 260 and 280 nm, as mentioned by Crona et al., in 2016 [34]. Quantification was based on peak area measurements in the chromatogram, providing relative quantification of the analyzed components.

SiHa cells [4] = assay: Anchorage-dependent colony formation assay; assay type: cell-based, human; settings: IC50 concentration of each compound
Description: SiHa cells (500 cells/well) were seeded in 6 cm plates. After 24 h, cells were treated with the IC50 concentration of test compounds and incubated for 21 days with media changes every three days. On day 21, colonies were stained with 0.4% crystal violet for 10 min, washed twice with PBS, and then counted.

SiHa cells [5] = assay: Suppression of cytotoxicity by iron supplementation (FAC co-administration, MTT); assay type: cell-based, human; settings: PA at IC50 with FAC 25, 50, 100 µM, MTT after 48 h
Description: To confirm the intracellular Fe^3+ chelation ability of PA, three different concentrations (25, 50, 100 µM) of ferric ammonium citrate (FAC) with PA (IC50) were co-administered in SiHa cells, and the cell viability was assessed using MTT after 48 h.

SiHa cells [6] = assay: Apoptosis assay (Annexin V/propidium iodide flow cytometry); assay type: cell-based, human; settings: 48 h
Description: SiHa cells were cultured at a density of 1 × 10^6 cells/mL in 10 cm plates. Upon reaching 80% confluency, cells were subjected to 48 h treatment with test compounds (IC50 and IC70). Following two PBS washes, trypsinization, and suspension in Annexin V binding buffer, cells were incubated, stained with propidium iodide, and analyzed for apoptosis using Apoptosis Detection Kit I and Partec CyFlow Space with FloMax software (Germany).

[7] = test system: RR (3H-thymidine incorporation into DNA of SiHa cells); assay: Inhibition of DNA synthesis (3H-thymidine incorporation) as RR activity; assay type: cell-based; settings: Homo sapiens, 48 h treatment
Description: SiHa cells (5 × 10^6) were treated with varying test compound concentrations for 48 h. Following incubation, cells were pulsed with 5 nM ^3H-thymidine for 30 min at 37 °C. After collection, washing, and total DNA extraction, radioactivity was quantified as counts per min (CPM) using a Tri-carb 2900TR liquid scintillation (Perkin Elmer, USA).

SiHa cells [8] = assay: In vitro cell migration (scratch) assay; assay type: cell-based, human; settings: IC50 concentration, 48 h post-wounding, control group 19.64%
Description: SiHa cells were cultured in 6-well plates using DMEM with 10% FBS until they formed a monolayer. A scratch was done on the cell monolayer by using a sterile 200 μL pipette tip. Subsequently, the cells were treated with the PA at IC50 concentration, and the extent of cell migration was assessed by analyzing the wound area at 0th, 24th, and 48th h time intervals using ImageJ software (Wayne Rasband, USA).

[9] = Partition coefficient 1-octanol/water; assay type: physicochemical; settings: 1-octanol/water (MOPS buffer), pH 7.4; read-out: log (Kpart7.4), partition coefficient
Description: The partition coefficient (Kpart) of PA was determined in a 1-octanol/water system. 1-octanol was added to MOPS buffer containing PA (IC50), and OD at 276 nm was measured before and after each addition. Kpart values were calculated..

[10] = test system: Acetyl-Histone H3 in SiHa cells; assay: Western blot of acetylated histone H3; assay type: cell-based, human; settings: PA 10 and 20 µM, 48 h
Description: SiHa cells (2 × 10^5 cells/well) were cultured in 6-well plates, treated with varied concentrations of test compounds for 48 h, and lysed in RIPA buffer. After centrifugation, protein content was quantified using Bradford assay. Protein extracts were subjected to SDS-PAGE and were transferred to the nitrocellulose membrane. Following blocking, membranes were probed with CST antibodies (Acetyl-Histone H3, B-Actin) at 1:3000 dilution and secondary anti-rabbit antibodies (1:5000 dilution). iBright™ CL1500 Imaging System captured the images.

SiHa cells [11] = assay: Cell cycle analysis (propidium iodide flow cytometry); assay type: cell-based, human; settings: IC50 concentration, 48 h
Description: After trypsinization, cells were fixed in 70% ethanol, treated with RNase-A, stained with propidium iodide, and analyzed using the Partec CyFlow Space with FloMax software (Germany).

| IC50 (HepG2; 48 h) [µM] | IC50 (MCF7; 48 h) [µM] | IC50 (HepG2; Homo sapiens, HepG2, 48 h) [µM] | IC50 (MCF7; Homo sapiens, MCF7, 48 h) [µM] | IC50 [2] [µM] | IC50 [7] [µM] | logD [9] | SMILES | IC50 [1] [µM] | IC50 (Cal27; 48 h) [µM] | IC50 (SiHa) [µM] | IC50 (Cal27; Homo sapiens, CAL-27, 48 h) [µM] | IC50 (SiHa; Homo sapiens, SiHa) [µM] | intracellular dNTP levels [3] | clonogenic efficiency (colony formation) (SiHa cells [4]) [%] | effect of ferric ammonium citrate (FAC) co-administration on cytotoxicity (SiHa cells [5]) | early apoptosis (SiHa cells [6]; IC50 concentration) [%] | early apoptosis (SiHa cells [6]; IC70 concentration) [%] | wound area percentage (SiHa cells [8]) [%] | acetylated Histone H3 levels (western blot) [10] | cell cycle progression (SiHa cells [11]) |
| --- | --- | --- | --- | --- | --- | --- | --- | --- | --- | --- | --- | --- | --- | --- | --- | --- | --- | --- | --- | --- |
| > 100 | > 100 |  |  |  |  |  | NC(=O)NO [HU, Hydroxyurea] | > 100 | > 100 | > 100 |  |  |  |  |  |  |  |  |  |  |
|  |  | > 100 | 48.8 ± 12 |  |  |  | c1cnc2c(c1)ccc1cccnc12 [1,10-Phenanthroline] | > 100 |  |  | 53 ± 2.18 | 42.9 ± 2.53 |  |  |  |  |  |  |  |  |
|  |  | > 100 | > 100 | 10.8 | 9.34 | 0.82 | O=C(CCCCCCC(=O)Nc1cc2cccnc2c2ncccc12)NO [PA, N^1-hydroxy-N^8-(1,10-phenanthrolin-5-yl)octanediamide] | > 100 |  |  | 51 ± 3.08 | 16.4 ± 4.71 | marked decrease in intracellular dNTP levels | 1.99 | FAC reduced PA cell toxicity in a concentration-dependent manner | 3.63 | 2.58 | 56.33 | dose-dependent increase in acetylated Histone H3 levels | increased the cell population at the S phase and a concentration-dependent elevation in the G2/M phase |

| SMILES | IC50 (HepG2; 48 h) [µM] | IC50 (MCF7; 48 h) [µM] | IC50 (HepG2; Homo sapiens, HepG2, 48 h) [µM] | IC50 (MCF7; Homo sapiens, MCF7, 48 h) [µM] | IC50 [2] [µM] | IC50 [7] [µM] | logD [9] | IC50 [1] [µM] | IC50 (Cal27; 48 h) [µM] | IC50 (SiHa) [µM] | IC50 (Cal27; Homo sapiens, CAL-27, 48 h) [µM] | IC50 (SiHa; Homo sapiens, SiHa) [µM] | intracellular dNTP levels [3] | clonogenic efficiency (colony formation) (SiHa cells [4]) [%] | effect of ferric ammonium citrate (FAC) co-administration on cytotoxicity (SiHa cells [5]) | early apoptosis (SiHa cells [6]; IC50 concentration) [%] | early apoptosis (SiHa cells [6]; IC70 concentration) [%] | wound area percentage (SiHa cells [8]) [%] | acetylated Histone H3 levels (western blot) [10] | cell cycle progression (SiHa cells [11]) |
| --- | --- | --- | --- | --- | --- | --- | --- | --- | --- | --- | --- | --- | --- | --- | --- | --- | --- | --- | --- | --- |
| CC(=O)N(O)CCCCCNC(=O)CCC(=O)N(O)CCCCCNC(=O)CCC(=O)N(O)CCCCCN [DFO, Deferoxamine] |  |  | > 100 | > 100 |  |  |  | > 100 |  |  | 46 ± 3.07 | 71.5 ± 5.02 |  | 44.63 |  |  |  |  |  |  |
